Assay results taken from US20240425478A1, “CYCLOPENTYLPYRAZOLE CDK2 INHIBITORS” (Genentech, Inc., priority 2021, published 2024).
Like-named read-outs stand apart in the source and are kept apart here.

How the values were obtained:
[1] = molecular target: T1, Cyclin Dependent Kinase 4/Cyclin D3 (CDK4-cycD3) (Homo sapiens, UniProt P11802); assay: CDK4-cycD3 TR-FRET (LANCE) enzyme assay; format: biochemical; settings: for Ki: enzymatic assay
T1 construct: purchased Carna Biosciences 04-105
Method: (§1) Cyclin Dependent Kinase 1/Cyclin A2 (CDK1-cycA2), Cyclin Dependent Kinase 2/Cyclin E1 (CDK2-cycE1), Cyclin Dependent Kinase 4/Cyclin D3 (CDK4-cycD3) and Cyclin Dependent Kinase 6/Cyclin D3 (CDK6-cycD3) enzyme assays were carried out as described below.
(iii) CDK4-cycD3 TR-FRET (LANCE®)
(§2) An Echo acoustic dispenser is used to create dose responses of compound dissolved in DMSO into a 384-well microplate. A 5 μL volume of enzyme mix is added to the well, and pre-incubated with compound for 30 minutes. […] Buffer conditions are 50 mM HEPES, pH 7.5, 10 mM MgCl2, 2 mM TCEP, 0.05% BGG and 0.01% Brij 35. The reaction is quenched with 5 μL of EDTA in detection buffer (15 mM [EDTA final]). Finally, a 5 μL TR-FRET detection mix is added to the quenched reaction, which includes Europium labeled anti-phospho-4E-BP1. […] Signal is a ratio of the Acceptor and Donor fluorescence. Inhibition constants are calculated via the Morrison equation.

[2] = system: OVISE (JCRB1043, CCNE1-amplified); assay: OVISE EdU incorporation cell proliferation assay (CDK2-dependent); format: cell-based; settings: for IC50: cellular assay, read-out: CDK2 OVISE IC50; for FS SKOV-3/OVISE: fold selectivity; for increased fold-selectivity SKOV-3/OVISE over Comparator C: (+) sign after FS SKOV-3/OVISE; for improvement in CDK2 OVISE cell potency over Comparator C: in brackets after OVISE IC50, Comparator C 5.5 μM
Method: (§3) (i) OVISE and SKOV-3 EdU Incorporation Cell Proliferation Assays
(§4) Ovarian cancer cell proliferation is measured by incorporation of EdU (5-ethynyl-2′-deoxyuridine) into newly synthesized DNA. CDK2-dependent proliferation is determined using OVISE (JCRB1043, CCNE1-amplified) while CDK4/6-dependent effect is determined with SKOV-3 (ATCC HTB-77) which is not CCNE1-amplified.
(§5) Cells are plated in 384-well plates in RPMI medium supplemented with 10% FBS. Compounds are added at desired concentrations with a final DMSO content of 0.5%, and cells incubated at 37° C./5% CO2 for 16 hours. EdU (Life Technologies) is added to a final concentration of 0.5 μM and incubation continued for 8 hours, followed by fixation with 4% paraformaldehyde. […] Images are acquired using Yokogawa CQ1 imaging cytometer with a 10×objective. […] The IC50 for inhibition of cell division is determined by fitting the fraction of EdU-positive cells as a function of compound dose using a 4-parameter logistic model.

[3] = molecular target: T2, Cyclin Dependent Kinase 2/Cyclin E1 (CDK2-cycE1) (Homo sapiens, UniProt P24941); assay: CDK2-cycE1 TR-FRET (LANCE) enzyme assay; format: biochemical; settings: for FS CDK1/CDK2 / FS CDK4/CDK2: fold selectivity; for increased fold-selectivity CDK4/CDK2 over Comparator C: (+) sign after FS CDK4/CDK2;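 on improvement in potency against CDK2 (Ki) over Comparator C: fold lower CDK2 Ki than comparator c (Ki 0.032 µM)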
T2 construct: purchased ProQinase 0050-0055-1
Method: as §1
(ii) CDK2-cycE1 TR-FRET (LANCE®)
as §2, with “anti-phospho-MBP.” for “anti-phospho-4E-BP1.”, “equation. Enzyme source of CDK2-cycE1 is ProQinase, catalog #: 0050-0055-1.” for “equation.”

SKOV-3 (ATCC HTB-77) = assay: SKOV-3 EdU incorporation cell proliferation assay (CDK4/6-dependent); format: cell-based; settings: for IC50: Homo sapiens, cellular assay, read-out: CDK4/6 SKOV-3 IC50
Method: as §3, §4, §5

[4] = molecular target: T3, Cyclin Dependent Kinase 1/Cyclin A2 (CDK1-cycA2) (Homo sapiens, UniProt P06493); assay: CDK1-cycA2 TR-FRET (Lance) enzyme assay; format: biochemical; settings: for Ki: enzymatic assay
T3 construct: purchased ProQinase 0134-0054-1
T3 sequence (P06493 whole entry): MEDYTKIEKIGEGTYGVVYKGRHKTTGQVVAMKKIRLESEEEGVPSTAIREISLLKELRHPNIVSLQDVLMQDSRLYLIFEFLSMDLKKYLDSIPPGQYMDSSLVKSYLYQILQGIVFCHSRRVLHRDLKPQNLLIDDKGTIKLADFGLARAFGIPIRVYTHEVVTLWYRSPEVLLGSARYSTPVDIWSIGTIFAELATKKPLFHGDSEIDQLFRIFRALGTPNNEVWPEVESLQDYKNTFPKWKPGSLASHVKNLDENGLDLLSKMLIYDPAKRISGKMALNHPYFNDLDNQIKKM
T3 sequence (P20248 whole entry partner): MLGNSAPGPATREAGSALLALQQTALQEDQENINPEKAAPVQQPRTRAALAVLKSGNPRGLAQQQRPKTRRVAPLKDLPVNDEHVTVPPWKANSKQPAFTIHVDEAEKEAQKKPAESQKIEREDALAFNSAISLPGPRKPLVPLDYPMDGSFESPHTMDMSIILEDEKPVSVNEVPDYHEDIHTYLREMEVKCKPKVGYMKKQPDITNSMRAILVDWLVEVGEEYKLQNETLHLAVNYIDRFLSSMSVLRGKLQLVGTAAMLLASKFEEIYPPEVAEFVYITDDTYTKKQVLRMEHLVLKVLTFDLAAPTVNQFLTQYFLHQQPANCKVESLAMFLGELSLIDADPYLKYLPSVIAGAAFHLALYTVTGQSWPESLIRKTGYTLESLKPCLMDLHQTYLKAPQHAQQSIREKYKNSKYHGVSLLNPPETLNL
Method: as §1
(1) CDK1-cycA2 TR-FRET (Lance®)
as §2

[5] = Table O, cellular SKOV-3 IC50 over OVISE IC50
[6] = Table O, enzymatic assay, read-out: CDK2 Ki
[7] = Table O, enzymatic CDK1 Ki over CDK2 Ki
[8] = Table O, enzymatic CDK4 Ki over CDK2 Ki
[9] = Table Q, enzymatic assay, read-out: CDK2 Ki
[10] = Table Q, in brackets after CDK2 Ki, Comparator C 0.032 μM
[11] = read-out: CDK2 activity / potency (enzymatic assay)
[12] = Table R, fold selectivity, enzymatic Ki ratio

T1 sequence (P11802 whole entry): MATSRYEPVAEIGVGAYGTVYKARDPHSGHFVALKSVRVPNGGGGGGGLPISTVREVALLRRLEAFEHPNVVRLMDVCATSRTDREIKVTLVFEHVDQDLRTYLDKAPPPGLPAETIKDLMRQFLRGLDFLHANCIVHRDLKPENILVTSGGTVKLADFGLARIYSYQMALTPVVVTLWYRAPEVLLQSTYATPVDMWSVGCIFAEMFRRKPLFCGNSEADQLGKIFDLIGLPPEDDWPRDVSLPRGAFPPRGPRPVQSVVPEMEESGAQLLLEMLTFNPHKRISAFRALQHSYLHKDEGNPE
T1 sequence (P30281 whole entry partner): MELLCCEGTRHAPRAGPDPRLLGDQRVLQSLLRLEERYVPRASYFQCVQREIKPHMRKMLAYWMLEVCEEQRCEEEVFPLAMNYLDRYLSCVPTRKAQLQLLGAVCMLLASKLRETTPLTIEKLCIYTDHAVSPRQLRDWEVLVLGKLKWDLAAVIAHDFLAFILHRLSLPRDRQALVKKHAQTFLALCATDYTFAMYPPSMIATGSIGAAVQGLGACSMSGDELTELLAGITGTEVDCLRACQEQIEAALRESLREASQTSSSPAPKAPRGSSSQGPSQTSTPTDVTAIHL

| Structure (SMILES) | Ki ([1]; Table O) | IC50 ([2]; Table O) | FS SKOV-3/OVISE [2, 5] | Ki [3, 6] | FS CDK1/CDK2 [3, 7] | FS CDK4/CDK2 [3, 8] | IC50 (SKOV-3 (ATCC HTB-77); SK-OV-3, Table O) | Ki ([4]; Table O) | increased fold-selectivity SKOV-3/OVISE over Comparator C ([2]; Table Q) | FS SKOV-3/OVISE ([2]; Table Q, cellular) | improvement in CDK2 OVISE cell potency over Comparator C ([2]; Table Q) | increased fold-selectivity CDK4/CDK2 over Comparator C ([3]; Table Q) | Ki [3, 9] | FS CDK1/CDK2 ([3]; Table Q, enzymatic) | FS CDK4/CDK2 ([3]; Table Q, enzymatic) | improvement in potency against CDK2 (Ki) over Comparator C [3, 10] | IC50 (SKOV-3 (ATCC HTB-77); SK-OV-3, Table Q) | further results |
| --- | --- | --- | --- | --- | --- | --- | --- | --- | --- | --- | --- | --- | --- | --- | --- | --- | --- | --- |
| CC[C@H](C)NC(=O)O[C@@H]1CC[C@H](c2cc(Nc3cccnn3)n[nH]2)C1 (single isomer, unassigned) [Example 3B] | 0.29 µM | 0.57 µM | 18 | 0.0085 µM | 24 | 34 | 10 µM | 0.2 µM |  |  |  |  |  |  |  |  |  |  |
| CC(C)NC(=O)O[C@@H]1CC[C@H](c2cc(Nc3ncnc(N(C)C)n3)n[nH]2)C1 [Example 2Q, (1R,3S)-3-(3-((4-(dimethylamino)-1,3,5-triazin-2-yl)amino)-1H-pyrazol-5-yl)cyclopentyl isopropylcarbamate] | 1.5 µM | 2.4 µM | >8.3 | 0.041 µM | 16 | 37 | > 20 µM | 0.67 µM | (+) (The (+) sign in Table Q signifies desirable increased fold-selectivity of the exemplary compounds over Comparator C) | > 8.3 | 2.3 fold | (+) (The (+) sign in Table Q signifies desirable increased fold-selectivity of the exemplary compounds over Comparator C) | 0.041 µM | 16 | 37 | 0.8 fold | > 20 µM |  |
| Cc1cc(=O)n(C)cc1Nc1cc([C@H]2CC[C@@H](OC(=O)NC(C)C)C2)[nH]n1 [Example 2S, (1R,3S)-3-(3-((1,4-dimethyl-6-oxo-1,6-dihydropyridin-3-yl)amino)-1H-pyrazol-5-yl)cyclopentyl isopropylcarbamate] | 12 µM | > 20 µM | 1.0 | 0.89 µM | 8.3 | 13 | > 20 µM | 7.4 µM |  | 1.0 | 0.28 fold | (+) (The (+) sign in Table Q signifies desirable increased fold-selectivity of the exemplary compounds over Comparator C) | 0.89 µM | 8.3 | 13 | 0.4 fold | > 20 µM | IC50 ([2]; Table Q): > 20 µM |
| CC(C)NC(=O)O[C@@H]1CC[C@H](c2cc(Nc3cc(=O)[nH]cn3)n[nH]2)C1 [Example 2CC, (1R,3S)-3-(3-((6-oxo-1,6-dihydropyrimidin-4-yl)amino)-1H-pyrazol-5-yl)cyclopentyl isopropylcarbamate] | 0.13 µM | 2 µM | >10 | 0.00033 µM | 100 | 390 | > 20 µM | 0.034 µM | (+) (The (+) sign in Table Q signifies desirable increased fold-selectivity of the exemplary compounds over Comparator C) | > 10 | 2.8 fold | (+) (The (+) sign in Table Q signifies desirable increased fold-selectivity of the exemplary compounds over Comparator C) | 0.00033 µM | 100 | 390 |  | > 20 µM | improvement in potency against CDK2 (Ki) over Comparator C [3]: 97 fold; increased fold-selectivity CDK1/CDK2 over Comparator C ([3]; Table Q, (+) sign after FS CDK1/CDK2): (+) (The (+) sign in Table Q signifies desirable increased fold-selectivity of the exemplary compounds over Comparator C); Ki [3, 11]: ≤ 0.001 µM |
| COc1cc(=O)n(C)cc1Nc1cc([C@H]2CC[C@@H](OC(=O)NC34CC(C3)C4)C2)[nH]n1 [Example 10, (1R,3S)-3-(3-((4-methoxy-1-methyl-6-oxo-1,6-dihydropyridin-3-yl)amino)-1H-pyrazol-5-yl)cyclopentyl bicyclo[1.1.1]pentan-1-ylcarbamate] | > 50 µM | 16 µM | >1.3 | 0.13 µM | 39 | 385 | > 20 µM | 5.1 µM |  |  |  |  |  |  |  |  |  |  |
| Cc1ncncc1Nc1cc([C@H]2CC[C@@H](OC(=O)NC(C)C)C2)[nH]n1 [Example 2U, (1R,3S)-3-(3-((4-methylpyrimidin-5-yl)amino)-1H-pyrazol-5-yl)cyclopentyl isopropylcarbamate] | 1.8 µM | 0.4 µM | >50 | 0.015 µM | 37 | 120 | > 20 µM | 0.56 µM | (+) (The (+) sign in Table Q signifies desirable increased fold-selectivity of the exemplary compounds over Comparator C) | > 50 | 13.8 fold | (+) (The (+) sign in Table Q signifies desirable increased fold-selectivity of the exemplary compounds over Comparator C) | 0.015 µM | 37 | 120 |  | > 20 µM | improvement in potency against CDK2 (Ki) over Comparator C [3]: 2 fold |
| CC(C)NC(=O)O[C@@H]1CC[C@H](c2cc(Nc3cccn(C)c3=O)n[nH]2)C1 [Example 2BB, (1R,3S)-3-(3-((1-methyl-2-oxo-1,2-dihydropyridin-3-yl)amino)-1H-pyrazol-5-y1)cyclopenty1 isopropylcarbamate] | 6.9 µM | > 20 µM | 1.0 | 1.1 µM | 29 | 6.3 | > 20 µM | 32 µM |  | 1.0 | 0.28 fold |  | 1.1 µM | 29 | 6.3 | 0.3 fold | > 20 µM | IC50 ([2]; Table Q): > 20 µM |
| C[C@H](NC(=O)O[C@@H]1CC[C@H](c2cc(Nc3cccnn3)n[nH]2)C1)C(F)(F)F (single isomer, unassigned) [Example 5A] | 2.1 µM | 2.2 µM | >9 | 0.063 µM | 27 | 33 | > 20 µM | 1.7 µM |  |  |  |  |  |  |  |  |  |  |
| CC(C)(C)NC(=O)O[C@@H]1CC[C@H](c2cc(Nc3ccc4c(n3)CCC4)n[nH]2)C1 [Comparator D, (1R,3S)-3-(3-((6,7-dihydro-5H-cyclopenta[b]pyridin-2-yl)amino)-1H-pyrazol-5-yl)cyclopentyl tert-butylcarbamate, reference compound] |  |  |  |  |  |  |  |  |  |  |  |  |  |  |  |  |  | Ki ([1]; Table R): 0.0052 µM; FS CDK4/CDK2 [1, 12]: 1.9; IC50 ([2]; Table R): 3.8 µM; Ki [3, 11]: 0.0027 µM; IC50 (SKOV-3 (ATCC HTB-77); SK-OV-3, Table R): 1.8 µM; FS SKOV-3/OVISE (SKOV-3 (ATCC HTB-77); Table R, fold selectivity, cellular IC50 ratio): 0.47; Ki ([4]; Table R): 0.054 µM; FS CDK1/CDK2 [4, 12]: 20 |
